B1: E. coli PabA (glutamine amidotransferase subunit of aminodeoxychorismate synthase) (enzyme, UniProt P00903 1-187, looked up)
chain: MILLIDNYDSFTWNLYQYFCELGADVLVKRNDALTLADIDALKPQKIVISPGPCTPDEAGISLDVIRHYAGRLPILGVCLGHQAMAQAFGGKVVRAAKVMHGKTSPITHNGEGVFRGLANPLTVTRYHSLVVEPDSLPACFDVTAWSETREIMGIRHRQWDLEGVQFHPESILSEQGHQLLANFLHR

Legend:
SmPabB = molecular target: T1, SmPabB (Stenotrophomonas maltophilia, UniProt B2FR92); assay: isothermal titration calorimetry; format: binding
T1 sequence (B2FR92 1-454): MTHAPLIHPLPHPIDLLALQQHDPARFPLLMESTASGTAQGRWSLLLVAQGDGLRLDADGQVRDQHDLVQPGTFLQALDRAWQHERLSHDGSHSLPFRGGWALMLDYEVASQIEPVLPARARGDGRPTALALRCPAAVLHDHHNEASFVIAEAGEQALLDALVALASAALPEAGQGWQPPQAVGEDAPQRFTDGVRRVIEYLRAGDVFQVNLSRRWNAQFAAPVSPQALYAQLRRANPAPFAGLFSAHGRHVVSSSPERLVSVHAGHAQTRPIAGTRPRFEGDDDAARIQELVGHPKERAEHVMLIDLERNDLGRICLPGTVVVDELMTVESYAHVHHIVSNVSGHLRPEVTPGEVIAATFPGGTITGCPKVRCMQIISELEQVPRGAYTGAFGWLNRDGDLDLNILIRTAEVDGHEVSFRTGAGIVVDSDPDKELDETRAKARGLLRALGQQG

E. coli PabB = molecular target: T2, E. coli PabB (Escherichia coli, UniProt P05041); assay: LC/MS of bound ligand released from purified protein; format: binding; conditions: co-purified tryptophan; vestigial regulatory site
T2 sequence (P05041 1-453): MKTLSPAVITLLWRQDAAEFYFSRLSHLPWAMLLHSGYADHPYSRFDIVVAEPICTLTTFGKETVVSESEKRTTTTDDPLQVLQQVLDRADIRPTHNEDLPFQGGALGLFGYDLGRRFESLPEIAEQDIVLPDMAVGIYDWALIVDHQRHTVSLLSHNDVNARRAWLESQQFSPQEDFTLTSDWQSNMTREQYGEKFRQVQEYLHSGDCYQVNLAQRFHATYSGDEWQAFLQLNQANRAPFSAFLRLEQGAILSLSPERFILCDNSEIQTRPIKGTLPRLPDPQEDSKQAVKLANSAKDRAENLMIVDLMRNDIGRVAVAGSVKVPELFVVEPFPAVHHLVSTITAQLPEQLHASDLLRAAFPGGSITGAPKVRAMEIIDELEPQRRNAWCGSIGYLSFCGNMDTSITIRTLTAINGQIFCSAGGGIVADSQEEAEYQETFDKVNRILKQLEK

[1] = molecular target: T3, Stenotrophomonas maltophilia PabB (aminodeoxychorismate synthase) (Stenotrophomonas maltophilia, UniProt B2FR92 2-454); assay: other fluorescence titration
T3 sequence: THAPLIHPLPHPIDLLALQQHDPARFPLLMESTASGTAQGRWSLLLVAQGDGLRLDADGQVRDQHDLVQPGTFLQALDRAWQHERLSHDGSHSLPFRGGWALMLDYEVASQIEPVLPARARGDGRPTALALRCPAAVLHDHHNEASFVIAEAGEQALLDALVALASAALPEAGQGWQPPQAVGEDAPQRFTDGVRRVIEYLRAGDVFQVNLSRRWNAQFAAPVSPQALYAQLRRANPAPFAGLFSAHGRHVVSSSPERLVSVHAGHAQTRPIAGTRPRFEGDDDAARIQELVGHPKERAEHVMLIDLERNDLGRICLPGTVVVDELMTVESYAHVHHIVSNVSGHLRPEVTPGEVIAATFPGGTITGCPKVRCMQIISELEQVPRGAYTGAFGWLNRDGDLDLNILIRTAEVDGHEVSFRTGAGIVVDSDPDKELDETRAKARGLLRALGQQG

[2] = molecular target: T4, E. coli PabB (aminodeoxychorismate synthase) (E. coli, UniProt P05041 1-453); assay: other fluorescence titration
T4 sequence: T2 sequence (P05041 1-453)

Row | Molecule | Kd (SmPabB) [nM] | LC/MS of bound ligand released from purified protein (E. coli PabB) | Kd [1] [nM] | Kd [2] [nM]
1 | N[C@@H](Cc1c[nH]c2ccccc12)C(=O)O [tryptophan] | ~11700 | E. coli PabB samples, as expected, contained tryptophan | – | –
2 | B1 | – | – | 39 | 109

From paper PMC3532939 (Biochemistry, 2012)
